Experimental findings from US20250154173A1 (Merck Sharp & Dohme LLC, priority 2023, published 2025) are described below.

For the test, the target named is T1, GST-RIPK1 (recombinant GST-RIPK1 kinase domain (residues 1-327)) (Homo sapiens, UniProt Q13546).
T1 construct: recombinant GST-RIPK1 kinase domain (residues 1-327) enzyme produced from baculovirus-transfected Sf21 cells; host or cells: baculovirus-transfected Sf21 insect cells
T1 sequence (Q13546 1-327): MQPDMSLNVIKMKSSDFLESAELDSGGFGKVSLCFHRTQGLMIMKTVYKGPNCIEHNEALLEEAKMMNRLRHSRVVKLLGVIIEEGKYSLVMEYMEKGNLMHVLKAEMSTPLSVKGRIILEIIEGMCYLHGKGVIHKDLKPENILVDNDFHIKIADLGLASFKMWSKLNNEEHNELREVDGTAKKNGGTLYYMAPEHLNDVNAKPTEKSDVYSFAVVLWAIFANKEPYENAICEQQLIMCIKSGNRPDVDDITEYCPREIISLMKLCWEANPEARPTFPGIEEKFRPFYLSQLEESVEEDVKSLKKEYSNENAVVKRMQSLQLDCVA
Nature of the test: RIPK1-ADP-Glo Enzymatic Assay. The test is classed as biochemical. The note with it: ten-point titration, top compound concentration of 100000 nM; 25 nM GST-RIPK1, 300 μM ATP, 3 μM dephosphorylated-MBP; 30 min pre-incubation, 150 min reaction. A digest of the protocol:
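GST-RIPK1 kinase domain (residues 1-327, Sf21-expressed), 25 nM, preincubated 30 min with compound, then reacted 150 min with 300 μM ATP and 3 μM dephosphorylated MBP in pH 7.3 Hepes buffer, 1% DMSO. ADP measured by ADP-Glo luminescence; EC50 from ten-point titration (top 100000 nM), four-parameter fit.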

`O=C1N2[C@@H](CC[C@H]2c2ccc(F)cc2)OC12CC(Oc1nccn3ncnc13)C2` (stereo partly drawn) [Example 9.59, (5′S,7a′R)-5′-(4-fluorophenyl)-3-[([1,2,4]triazolo[1,5-a]pyrazin-8-yl)oxy]tetrahydro-3′H-spiro[cyclobutane-1,2′-pyrrolo[2,1-b][1,3]oxazol]-3′-one]: the EC50 amounted to 71.9 nM.

For `N#Cc1ccncc1COC1CC2(C1)OC1CC[C@@H](c3cnccn3)N1C2=O` (stereo partly drawn) [Example 18.93, 3-({[(5′S)-3′-oxo-5′-(pyrazin-2-yl)tetrahydro-3′H-spiro[cyclobutane-1,2′-pyrrolo[2,1-b][1,3]oxazol]-3-yl]oxy}methyl)pyridine-4-carbonitrile], the EC50 amounted to 329 nM.

For the compound `O=C1N2[C@@H](CC[C@H]2c2ccccc2)O[C@]12C[C@H](Oc1ncnn3cccc13)C2` [Example 9.24, (1r,3R,5′S,7a′R)-5′-phenyl-3-[(pyrrolo[2,1-f][1,2,4]triazin-4-yl)oxy]tetrahydro-3′H-spiro[cyclobutane-1,2′-pyrrolo[2,1-b][1,3]oxazol]-3′-one], the EC50 was found to be 11 nM.

For `O=C1N2[C@@H](CC[C@H]2c2cc(F)cc(F)c2)O[C@]12C[C@H](Oc1cccnc1Cl)C2` [Example 9.36, (5′S,7a′R)-3-[(2-chloropyridin-3-yl)oxy]-5′-(3,5-difluorophenyl)tetrahydro-3′H-spiro[cyclobutane-1,2′-pyrrolo[2,1-b][1,3]oxazol]-3′-one], the EC50 is 16 nM.

Consider `NC(=O)c1ccnc(O[C@H]2C[C@@]3(C2)O[C@@H]2CC[C@@H](c4ccccc4)N2C3=O)c1` [Example 10.5, 2-(((1r,3R,5′S,7a′R)-3′-oxo-5′-phenyltetrahydro-3′H-spiro[cyclobutane-1,2′-pyrrolo[2,1-b]oxazol]-3-yl)oxy)isonicotinamide], for which the concentration giving a half-maximal response (EC50) is 20 nM.

For the compound `N#Cc1ccncc1COC1CC2(C1)OC1CC[C@@H](c3cnccn3)N1C2=O` (stereo partly drawn) [Example 18.45, 3-({[(5′S)-3′-oxo-5′-(pyrazin-2-yl)tetrahydro-3′H-spiro[cyclobutane-1,2′-pyrrolo[2,1-b][1,3]oxazol]-3-yl]oxy}methyl)pyridine-4-carbonitrile], the EC50 was found to be 159 nM.

Consider `O=C1N2[C@@H](CC[C@H]2c2cncc(F)c2)OC12CCC(Oc1ccccc1)CC2` (single isomer, unassigned) [Example 16.4, (1s or r), (5′S,7a′R)-5′-(5-fluoropyridin-3-yl)-4-phenoxytetrahydro-3′H-spiro[cyclohexane-1,2′-pyrrolo[2,1-b]oxazol]-3′-one], for which the EC50 was 476 nM.

As for `N#CC1(c2ccc(COC3CC4(C3)O[C@@H]3CC[C@@H](c5cnccn5)N3C4=O)cc2)CC1` (stereo partly drawn) [Example 20.8, 1-[4-({[(5′S,7a′R)-3′-oxo-5′-(pyrazin-2-yl)tetrahydro-3′H-spiro[cyclobutane-1,2′-pyrrolo[2,1-b][1,3]oxazol]-3-yl]oxy}methyl)phenyl]cyclopropane-1-carbonitrile], the EC50 came out at 236 nM.

Consider `O=C1N2C(CC[C@H]2c2cnccn2)OC12CC(OCc1ccc(OC3CCOCC3)nc1)C2` (stereo partly drawn) [Example 18.106, (5′S)-3-({6-[(oxan-4-yl)oxy]pyridin-3-yl}methoxy)-5′-(pyrazin-2-yl)tetrahydro-3′H-spiro[cyclobutane-1,2′-pyrrolo[2,1-b][1,3]oxazol]-3′-one], for which the EC50 is 569 nM.

For `N#Cc1cc(O[C@H]2C[C@@]3(C2)O[C@@H]2CC[C@@H](c4cc(F)cc(F)c4)N2C3=O)ncn1` [Example 9.2, 6-(((5′S,7a′R)-5′-(3,5-difluorophenyl)-3′-oxotetrahydro-3′H-spiro[cyclobutane-1,2′-pyrrolo[2,1-b]oxazol]-3-yl)oxy)pyrimidine-4-carbonitrile], the EC50 was 16 nM.

Turning to `NC(=O)c1ccnc(O[C@H]2C[C@@]3(C2)O[C@@H]2CC[C@@H](c4ccc(F)cc4)N2C3=O)c1` [Example 10.6, 2-(((1r,3R,5′S,7a′R)-5′-(4-fluorophenyl)-3′-oxotetrahydro-3′H-spiro[cyclobutane-1,2′-pyrrolo[2,1-b]oxazol]-3-yl)oxy)isonicotinamide], the EC50 was found to be 52 nM.

Consider `O=C1N2[C@@H](CC[C@H]2c2cnccn2)OC12CC(OCc1cccc(Cl)c1)C2` (stereo partly drawn) [Example 22.6, (5′S,7a′R)-3-[(3-chlorophenyl)methoxy]-5′-(pyrazin-2-yl)tetrahydro-3′H-spiro[cyclobutane-1,2′-pyrrolo[2,1-b][1,3]oxazol]-3′-one], for which the 50% effective concentration (EC50) worked out at 15 nM.

Take `N#Cc1cc(O[C@H]2C[C@@]3(C2)O[C@@H]2CC[C@@H](c4ccc(F)cn4)N2C3=O)ncn1` [Example 9.47, 6-{[(5′S,7a′R)-5′-(5-fluoropyridin-2-yl)-3′-oxotetrahydro-3′H-spiro[cyclobutane-1,2′-pyrrolo[2,1-b][1,3]oxazol]-3-yl]oxy}pyrimidine-4-carbonitrile]: the EC50 is 24 nM.

As for `O=C1N2[C@@H](CC[C@H]2c2cnccn2)OC12CC(OCC1CCC1)C2` (single isomer, unassigned) [Example 23.2, (5′S,7a′R)-3-(cyclobutylmethoxy)-5′-(pyrazin-2-yl)tetrahydro-3′H-spiro[cyclobutane-1,2′-pyrrolo[2,1-b]oxazol]-3′-one], the EC50 was found to be 577 nM.

Consider `Cc1ncccc1COC1CC2(C1)O[C@@H]1CC[C@@H](c3cnccn3)N1C2=O` (stereo partly drawn) [Example 20.5, (5′S,7a′R)-3-[(2-methylpyridin-3-yl)methoxy]-5′-(pyrazin-2-yl)tetrahydro-3′H-spiro[cyclobutane-1,2′-pyrrolo[2,1-b][1,3]oxazol]-3′-one], for which the EC50 is 74 nM.

Take `O=C1N2[C@@H](CC[C@H]2c2cnccn2)OC12CC(OCc1ccnc3ccnn13)C2` (stereo partly drawn) [Example 18.60, (5′S)-5′-(pyrazin-2-yl)-3-[(pyrazolo[1,5-a]pyrimidin-7-yl)methoxy]tetrahydro-3′H-spiro[cyclobutane-1,2′-pyrrolo[2,1-b][1,3]oxazol]-3′-one]: the EC50 was determined as 91 nM.

For the compound `N#Cc1ccc(COC2CC3(C2)O[C@@H]2CC[C@@H](c4cnccn4)N2C3=O)cc1` (single isomer, unassigned) [Example 22.7, 4-({[(5′S,7a′R)-3′-oxo-5′-(pyrazin-2-yl)tetrahydro-3′H-spiro[cyclobutane-1,2′-pyrrolo[2,1-b][1,3]oxazol]-3-yl]oxy}methyl)benzonitrile], the EC50 is 29 nM.

As for `O=C1N2[C@@H](CC[C@H]2c2cncc(F)c2)OC12CCC(OCc1ccccc1)CC2` (single isomer, unassigned) [Example 2.1, ((1r or s),4R,5′S,7a′R)-4-(benzyloxy)-5′-(5-fluoropyridin-3-yl)tetrahydro-3′H-spiro[cyclohexane-1,2′-pyrrolo[2,1-b]oxazol]-3′-one], the concentration for a half-maximal effect (EC50) was 1130 nM.

Regarding `O=C1N2[C@@H](CC[C@H]2c2ccccc2)OC12CCC(OCc1ccccc1)CC2` (single isomer, unassigned) [Example 1.2, ((1s or r),4R,5′S,7a′R)-4-(benzyloxy)-5′-phenyltetrahydro-3′H-spiro[cyclohexane-1,2′-pyrrolo[2,1-b]oxazol]-3′-one], the EC50 was found to be 138 nM.

In the case of `O=C1N2C(CC[C@H]2c2cnccn2)OC12CC(OCc1cccc3cncc(F)c13)C2` (stereo partly drawn) [Example 18.72, (5′S)-3-[(4-fluoroisoquinolin-5-yl)methoxy]-5′-(pyrazin-2-yl)tetrahydro-3′H-spiro[cyclobutane-1,2′-pyrrolo[2,1-b][1,3]oxazol]-3′-one], the EC50 is 83 nM.

On to `N#Cc1ccnc(O[C@H]2C[C@@]3(C2)O[C@@H]2CC[C@@H](c4cc(F)cc(F)c4)N2C3=O)c1` [Example 10.1, 2-(((1r,3R,5′S,7a′R)-5′-(3,5-difluorophenyl)-3′-oxotetrahydro-3′H-spiro[cyclobutane-1,2′-pyrrolo[2,1-b]oxazol]-3-yl)oxy)isonicotinonitrile], for which the EC50 was 9 nM.

With `N#CCCc1ccc(COC2CC3(C2)OC2CC[C@@H](c4cnccn4)N2C3=O)cc1` (stereo partly drawn) [Example 18.47, 3-[4-({[(5′S)-3′-oxo-5′-(pyrazin-2-yl)tetrahydro-3′H-spiro[cyclobutane-1,2′-pyrrolo[2,1-b][1,3]oxazol]-3-yl]oxy}methyl)phenyl]propanenitrile], the EC50 amounted to 60 nM.

For the compound `O=C1N2[C@@H](CC[C@H]2c2cc(F)cc(F)c2)O[C@]12C[C@H](Oc1cccc3ncnn13)C2` [Example 9.26, (1r,3R,5′S,7a′R)-5′-(3,5-difluorophenyl)-3-[([1,2,4]triazolo[1,5-a]pyridin-5-yl)oxy]tetrahydro-3′H-spiro[cyclobutane-1,2′-pyrrolo[2,1-b][1,3]oxazol]-3′-one], the concentration for a half-maximal effect (EC50) came out at 276 nM.

For the compound `O=C1N2[C@@H](CC[C@H]2c2ccc(F)cc2)OC12CC(Oc1nccn3ccnc13)C2` (stereo partly drawn) [Example 9.58, (5′S,7a′R)-5′-(4-fluorophenyl)-3-[(imidazo[1,2-a]pyrazin-8-yl)oxy]tetrahydro-3′H-spiro[cyclobutane-1,2′-pyrrolo[2,1-b][1,3]oxazol]-3′-one], the EC50 was 467 nM.

In the case of `N#Cc1cc(OC2CC3(C2)O[C@@H]2CC[C@@H](c4cc(F)cc(F)c4)N2C3=O)ncc1F` (single isomer, unassigned) [Example 17.1, 2-((((Is or r),3S,5′S,7a′R)-5′-(3,5-difluorophenyl)-3′-oxotetrahydro-3′H-spiro[cyclobutane-1,2′-pyrrolo[2,1-b]oxazol]-3-yl)oxy)-5-fluoroisonicotinonitrile], the 50% effective concentration (EC50) is 86 nM.
